The term T/C denotes the ratio of treated to control.

The structures appear in SMILES notation. Values joined by “and” are separate entries in the source; they are usually repeats but may differ in a detail not shown here. Equal entries are not always repeated.

This assay relates to BDF1 mice, Adenocarcinoma 755 s.c., tumor weight T/C. The assay is described as follows: NCI In Vivo Anticancer Drug Screen. Data for tumor model Adenocarcinoma 755 (subcutaneous) in B6D2F1 (BDF1) mice. To be noted: endpoint: mean tumor weight, higher = larger tumour. A digest of the protocol: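 Compound activity was tested in mice carrying transplanted tumors. Survival or tumor size was measured, and each value is the treated-group measurement divided by that of the vehicle-treated control group (T/C).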

[1] abbreviates: dose: 62.0 mg/kg/injection, schedule: Q01DX011 (ip), vehicle: carboxymethylcellulose (CMC).
Where [2] appears, read: dose: 25.0 mg/kg/injection, schedule: Q01DX011 (ip), vehicle: methylcellulose (MC).
Setting [3] is: dose: 225.0 mg/kg/injection, schedule: Q01DX011 (ip), vehicle: methylcellulose (MC).

For the compound `O=C(Nc1cccc(C2=NCCN2)c1)c1ccc(N=Nc2ccc(C(=O)Nc3cccc(C4=NCCN4)c3)cc2)cc1`, the T/C is 81 % of control (dose: 15.0 mg/kg/injection, schedule: Q01DX011 (ip), vehicle: methylcellulose (MC)); 70 % of control (dose: 30.0 mg/kg/injection, schedule: Q01DX011 (ip), vehicle: methylcellulose (MC)); 68 % of control (dose: 60.0 mg/kg/injection, schedule: Q01DX011 (ip), vehicle: methylcellulose (MC)); 70 % of control (dose: 120.0 mg/kg/injection, schedule: Q01DX011 (ip), vehicle: methylcellulose (MC)).
As to `CCCCNP(=O)(N1CC1C)N1CC1C` (stereo not drawn), the T/C by setting is: (dose: 7.0 mg/kg/injection, schedule: Q01DX011 (ip), vehicle: saline) 53 % of control; (dose: 14.0 mg/kg/injection, schedule: Q01DX011 (ip), vehicle: saline) 53 % of control; (dose: 28.0 mg/kg/injection, schedule: Q01DX011 (ip), vehicle: saline) 25 % of control; (dose: 56.0 mg/kg/injection, schedule: Q01DX011 (ip), vehicle: saline) 1 % of control.
Consider `S=c1nc[nH]c2c1ncn2C1CCCCC1`, for which the T/C reads like this: under setting [1], 117 % of control; (dose: 125.0 mg/kg/injection, schedule: Q01DX011 (ip), vehicle: carboxymethylcellulose (CMC)) 118 % of control; (dose: 188.0 mg/kg/injection, schedule: Q01DX011 (oral), vehicle: carboxymethylcellulose (CMC)) 154 % of control; (dose: 250.0 mg/kg/injection, schedule: Q01DX011 (ip), vehicle: carboxymethylcellulose (CMC)) 66 % of control; (dose: 376.0 mg/kg/injection, schedule: Q01DX011 (oral), vehicle: carboxymethylcellulose (CMC)) 104 % of control; (dose: 500.0 mg/kg/injection, schedule: Q01DX011 (ip), vehicle: carboxymethylcellulose (CMC)) 62 % of control. Also, the T/C (dose: 752.0 mg/kg/injection, schedule: Q01DX011 (oral), vehicle: carboxymethylcellulose (CMC)) was 87 % of control.
Turning to `COc1ccc(C[n+]2cc([O-])on2)cc1`, the T/C was 75 % of control (dose: 0.39 mg/kg/injection, schedule: Q01DX011 (ip), vehicle: carboxymethylcellulose (CMC)); 80 % of control (dose: 0.78 mg/kg/injection, schedule: Q01DX011 (ip), vehicle: carboxymethylcellulose (CMC)); 63 % of control (dose: 1.56 mg/kg/injection, schedule: Q01DX011 (ip), vehicle: carboxymethylcellulose (CMC)); 70 % of control (dose: 3.0 mg/kg/injection, schedule: Q01DX011 (ip), vehicle: carboxymethylcellulose (CMC)); 89 % of control (dose: 6.0 mg/kg/injection, schedule: Q01DX011 (ip), vehicle: carboxymethylcellulose (CMC)); 57 % of control (dose: 6.25 mg/kg/injection, schedule: Q01DX011 (ip), vehicle: carboxymethylcellulose (CMC)). For the same compound, the T/C is, setting by setting: (dose: 12.0 mg/kg/injection, schedule: Q01DX011 (ip), vehicle: carboxymethylcellulose (CMC)) 52 % of control; (dose: 12.5 mg/kg/injection, schedule: Q01DX011 (ip), vehicle: carboxymethylcellulose (CMC)) 51 % of control; (dose: 24.0 mg/kg/injection, schedule: Q01DX011 (ip), vehicle: carboxymethylcellulose (CMC)) 67 % of control.
In the case of `COC(=O)c1cc(=O)[nH]c(N)n1`, the T/C is, setting by setting: (dose: 15.0 mg/kg/injection, schedule: Q01DX011 (ip), vehicle: saline) 101 % of control; (dose: 31.0 mg/kg/injection, schedule: Q01DX011 (ip), vehicle: saline) 150 % of control; (dose: 62.0 mg/kg/injection, schedule: Q01DX011 (ip), vehicle: saline) 97 % of control; (dose: 125.0 mg/kg/injection, schedule: Q01DX011 (ip), vehicle: saline) 81 % of control; (dose: 250.0 mg/kg/injection, schedule: Q01DX011 (ip), vehicle: saline) 113 % of control.
For the compound `Cc1ccc(N=Nc2c(S(=O)(=O)O)cc3cc(NC(=O)Nc4ccc5c(O)c(N=Nc6ccc7cc(S(=O)(=O)O)ccc7c6)c(S(=O)(=O)O)cc5c4)ccc3c2O)c(C)c1`, the T/C (dose: 45.0 mg/kg/injection, schedule: Q01DX011 (ip), vehicle: carboxymethylcellulose (CMC)) was 81 % of control.
Regarding `CO[C@@H]([CH2][Hg][S]C#N)[C@@H]([CH2][Hg][S]C#N)OC`, the T/C is 56 % of control (dose: 9.5 mg/kg/injection, schedule: Q01DX011 (ip), vehicle: carboxymethylcellulose (CMC)) and 57 % of control (dose: 18.75 mg/kg/injection, schedule: Q01DX011 (ip), vehicle: carboxymethylcellulose (CMC)).
On to `Cn1cnc2c(ncn2C2CC(O)C(CO)O2)c1=N` (stereo not drawn), for which the T/C (dose: 30.0 mg/kg/injection, schedule: Q01DX011 (ip), vehicle: saline) was 83 % of control; the T/C (dose: 60.0 mg/kg/injection, schedule: Q01DX011 (ip), vehicle: saline) was 100 % of control; the T/C (dose: 120.0 mg/kg/injection, schedule: Q01DX011 (ip), vehicle: saline) is 80 % of control; the T/C (dose: 240.0 mg/kg/injection, schedule: Q01DX011 (ip), vehicle: saline) is 108 % of control.
As for `O=c1[nH]cnc2c1ncn2CCCl`, the T/C by setting is: under setting [2], 195 % of control; (dose: 75.0 mg/kg/injection, schedule: Q01DX011 (ip), vehicle: methylcellulose (MC)) 150 % of control; under setting [3], 120 % of control.
On to `CN(C)N=Nc1ccc(CCCC(=O)NN)cc1`, for which the T/C reads like this: (dose: 31.0 mg/kg/injection, schedule: Q01DX011 (ip), vehicle: carboxymethylcellulose (CMC)) 60 % of control; under setting [1], 10 % of control.
For the compound `COc1ccc2c3c([nH]c2c1)[C@H]1C[C@H]2[C@H](C[C@@H](O)[C@H](OC)[C@H]2CO)CN1CC3`, the T/C is, setting by setting: (dose: 0.5 mg/kg/injection, schedule: Q01DX011 (ip), vehicle: saline) 91 % of control; (dose: 1.0 mg/kg/injection, schedule: Q01DX011 (ip), vehicle: saline) 95 % of control; (dose: 2.0 mg/kg/injection, schedule: Q01DX011 (ip), vehicle: saline) 92 % of control.
`Cn1c(=O)c2c(nc(/N=C/c3ccccc3)n2C)n(C)c1=O`: the T/C under setting [2] is 51 % of control.
Consider `CS(=O)(=O)OCCC(=O)N1CN(C(=O)CCOS(C)(=O)=O)CN(C(=O)CCOS(C)(=O)=O)C1`, for which the T/C was 115 % of control (dose: 28.0 mg/kg/injection, schedule: Q01DX011 (ip), vehicle: methylcellulose (MC)); 110 % of control (dose: 57.0 mg/kg/injection, schedule: Q01DX011 (ip), vehicle: methylcellulose (MC)); 81 % of control under setting [3].
As to `O=NN(CCCl)C(=O)NCCCl`, the T/C was 63 % of control and 66 % of control and 75 % of control (dose: 0.45 mg/kg/injection, schedule: Q01DX011 (ip), vehicle: carboxymethylcellulose (CMC)); 90 % of control and 98 % of control and 86 % of control (dose: 0.9 mg/kg/injection, schedule: Q01DX011 (ip), vehicle: carboxymethylcellulose (CMC)); 93 % of control and 99 % of control (dose: 1.62 mg/kg/injection, schedule: Q01DX011 (ip), vehicle: saline); 47 % of control (dose: 1.75 mg/kg/injection, schedule: Q01DX011 (ip), vehicle: carboxymethylcellulose (CMC)); 79 % of control and 84 % of control (dose: 3.25 mg/kg/injection, schedule: Q01DX011 (ip), vehicle: saline); 36 % of control and 40 % of control (2×) (dose: 3.5 mg/kg/injection, schedule: Q01DX011 (ip), vehicle: carboxymethylcellulose (CMC)). Further, the T/C reads like this: (dose: 6.5 mg/kg/injection, schedule: Q01DX011 (ip), vehicle: carboxymethylcellulose (CMC)) 32 % of control and 34 % of control; (dose: 6.5 mg/kg/injection, schedule: Q01DX011 (ip), vehicle: saline) 59 % of control and 78 % of control; (dose: 7.0 mg/kg/injection, schedule: Q01DX011 (ip), vehicle: carboxymethylcellulose (CMC)) 18 % of control (2×) and 40 % of control; (dose: 13.0 mg/kg/injection, schedule: Q01DX011 (ip), vehicle: carboxymethylcellulose (CMC)) 13 % of control.

(Values after PubChem BioAssay AID180 (DTP/NCI, 2004).)
